The source of these data is patent US4211693A, “Peptides with para-substituted phenylalanine” (The Salk Institute for Biological Studies, priority 1978, dated 1980).

Read-outs that look alike come from different tables or passages of the source. Where a SMILES comes first, the peptide text is derived from it. Bridges are numbered along the chain shown (N, C = ends). [ ]: non-standard residue; d: D form. Phe(4-Cl) = N[C@@H](Cc1ccc(Cl)cc1)C(=O)O

Assay [1] deals with secretion of insulin. Type of assay: in vivo, Male Sprague-Dawley-CD rats. The procedure: (§1) In vivo Bioassay: Male Sprague-Dawley-CD rats weighing 180-200 g housed in temperature and humidity controlled quarters with 14 h light and 10 h dark (light 0700-[…]) were used in all experiments. Animals were fed a standard ration and tap water ad libitum. Experiments were carried out at least 5 days after arrival of rats from the supplier between the hours 1400 and 1600. After ether anesthesia, peptides or saline were administered in a volume of 0.2 ml via the external jugular vein. Animals remained anesthetized until the time of blood collection from the portal vein. Blood collection was performed at various times after administration of the peptide or saline. The blood samples were placed into chilled tubes containing 10 mg EDTA and 50 μl of 2 M Benzamidine per ml of blood.
(§2) All experiments were carried on in a randomized block design. Following analysis of variance difference between treatmments were determined by the multiple range tests of Dunnett and Duncan. Potency values were calculated from four or six point bioassays.

Assay [2] concerns secretion of glucagon. Type of assay: in vivo, Male Sprague-Dawley-CD rats. The protocol:
as §1, §2

For assay [3], the system named is secretion of growth hormone.
Experimental: GH determinations were performed on tissue culture media utilizing the following reagents: NIAMDD rat GH standard (GH-RP-1), NIAMDD monkey anti-rat GH (GH-Serum-3), and highly purified rat GH for iodination.
Where [4] appears, read: somatostatin = 100, peptide via external jugular vein, blood from portal vein, four or six point bioassays.

Turning to `C[C@H](N)C(=O)NCC(=O)N[C@H]1CSSC[C@@H](C(=O)O)NC(=O)[C@H](CO)NC(=O)[C@H]([C@@H](C)O)NC(=O)[C@H](Cc2ccc(I)cc2)NC(=O)[C@H]([C@@H](C)O)NC(=O)[C@H](CCCCN)NC(=O)[C@H](Cc2c[nH]c3ccccc23)NC(=O)[C@H](Cc2ccccc2)NC(=O)[C@H](Cc2ccccc2)NC(=O)[C@H](CC(N)=O)NC(=O)[C@H](CCCCN)NC1=O` [[P I Phe^11]--SS], the “Relative potency to inhibit the secretion of INSULIN” value in assay [1] (rat, in vivo) is 950. Also, the “Relative potency to inhibit the secretion of GLUCAGON” value in assay [2] (rat, in vivo) was 900. The “Relative potency to inhibit the secretion of GH (growth hormone)” value in assay [3] was 100.
Regarding `C[C@H](N)C(=O)NCC(=O)N[C@H]1CSSC[C@@H](C(=O)O)NC(=O)[C@H](CO)NC(=O)[C@H]([C@@H](C)O)NC(=O)[C@H](Cc2ccc(Cl)cc2)NC(=O)[C@H]([C@@H](C)O)NC(=O)[C@H](CCCCN)NC(=O)[C@H](Cc2c[nH]c3ccccc23)NC(=O)[C@H](Cc2ccc(Cl)cc2)NC(=O)[C@H](Cc2ccc(Cl)cc2)NC(=O)[C@H](CC(N)=O)NC(=O)[C@H](CCCCN)NC1=O` [[P Cl Phe^6,7,11]--SS], in assay [1] (rat, in vivo), the “Relative potency to inhibit the secretion of INSULIN” value is 800. Besides, in assay [2] (rat, in vivo), the “Relative potency to inhibit the secretion of GLUCAGON” value was 900. Further, the “Relative potency to inhibit the secretion of GH (growth hormone)” value in assay [3] is reported as 78.
For the molecule `C[C@H](N)C(=O)NCC(=O)N[C@H]1CSSC[C@@H](C(=O)O)NC(=O)[C@H](CO)NC(=O)[C@H]([C@@H](C)O)NC(=O)[C@H](Cc2ccccc2)NC(=O)[C@H]([C@@H](C)O)NC(=O)[C@H](CCCCN)NC(=O)[C@H](Cc2c[nH]c3ccccc23)NC(=O)[C@H](Cc2ccccc2)NC(=O)[C@H](Cc2ccccc2)NC(=O)[C@H](CC(N)=O)NC(=O)[C@H](CCCCN)NC1=O` [Somatostatin (SS), Somatostatin, reference compound], the “Relative potency to inhibit the secretion of INSULIN” value in assay [1] (setting [4]) is reported as 100. Also, in assay [2] (setting [4]), the “Relative potency to inhibit the secretion of GLUCAGON” value is on record as 100. In addition, the “Relative potency to inhibit the secretion of GH (growth hormone)” value in assay [3] (somatostatin = 100, GH in tissue culture media, four or six point bioassays) was found to be 100.
In the case of `C[C@@H](O)[C@@H]1NC(=O)[C@H](CCCCN)NC(=O)[C@@H](Cc2c[nH]c3ccccc23)NC(=O)[C@H](Cc2ccccc2)NC(=O)[C@H](Cc2ccc(Cl)cc2)NC(=O)[C@@H](N)CSSC[C@@H](C(=O)O)NC(=O)[C@H](Cc2ccc(Cl)cc2)NC1=O` [Des--AA^1,2,4,5,12,13 --[P Cl Phe^6,11]--D-Trp^8 --SS] (H-C[Phe(4-Cl)]F[dW]KT[Phe(4-Cl)]C-OH; disulfide 1-8), in assay [1] (rat, in vivo), the “Relative potency to inhibit the secretion of INSULIN” value is recorded as 27. The “Relative potency to inhibit the secretion of GLUCAGON” value in assay [2] (rat, in vivo) was above 1.
With `C[C@H](N)C(=O)NCC(=O)N[C@H]1CSSC[C@@H](C(=O)O)NC(=O)[C@H](CO)NC(=O)[C@H]([C@@H](C)O)NC(=O)[C@H](Cc2ccc(I)cc2)NC(=O)[C@H]([C@@H](C)O)NC(=O)[C@H](CCCCN)NC(=O)[C@@H](Cc2c[nH]c3ccccc23)NC(=O)[C@H](Cc2ccccc2)NC(=O)[C@H](Cc2ccccc2)NC(=O)[C@H](CC(N)=O)NC(=O)[C@H](CCCCN)NC1=O` [[P I Phe^11]--D-Trp^8 --SS], the “Relative potency to inhibit the secretion of INSULIN” value in assay [1] (rat, in vivo) stood at 33. Also, the “Relative potency to inhibit the secretion of GLUCAGON” value in assay [2] (rat, in vivo) amounted to 800.
Taken in the same sequence, the figures for `C[C@H](N)C(=O)NCC(=O)N[C@H]1CSSC[C@@H](C(=O)O)NC(=O)[C@H](CO)NC(=O)[C@H]([C@@H](C)O)NC(=O)[C@H](Cc2ccccc2)NC(=O)[C@H]([C@@H](C)O)NC(=O)[C@H](CCCCN)NC(=O)[C@@H](Cc2c[nH]c3ccccc23)NC(=O)[C@H](Cc2ccc(I)cc2)NC(=O)[C@H](Cc2ccccc2)NC(=O)[C@H](CC(N)=O)NC(=O)[C@H](CCCCN)NC1=O` [[P I Phe^7]--D-Trp^8 --SS] were 100 and 100.
Taken in the same sequence, the figures for `C[C@H](N)C(=O)NCC(=O)N[C@H]1CSSC[C@@H](C(=O)O)NC(=O)[C@H](CO)NC(=O)[C@H]([C@@H](C)O)NC(=O)[C@H](Cc2ccccc2)NC(=O)[C@H]([C@@H](C)O)NC(=O)[C@H](CCCCN)NC(=O)[C@@H](Cc2c[nH]c3ccccc23)NC(=O)[C@H](Cc2ccccc2)NC(=O)[C@H](Cc2ccc(I)cc2)NC(=O)[C@H](CC(N)=O)NC(=O)[C@H](CCCCN)NC1=O` [[P I Phe^6]--D-Trp^8 --SS] were 100 and 100.
With `C[C@H](N)C(=O)NCC(=O)N[C@H]1CSSC[C@@H](C(=O)O)NC(=O)[C@@H](CO)NC(=O)[C@H]([C@@H](C)O)NC(=O)[C@H](Cc2ccc(Cl)cc2)NC(=O)[C@H]([C@@H](C)O)NC(=O)[C@H](CCCCN)NC(=O)[C@@H](Cc2c[nH]c3ccccc23)NC(=O)[C@H](Cc2ccc(Cl)cc2)NC(=O)[C@H](Cc2ccc(Cl)cc2)NC(=O)[C@H](CCCCN)NC1=O` [Des--Asn^5 --[P Cl Phe^6,7,11]--D-Trp^8 --D--Ser^13 --SS] (H-AGCK[Phe(4-Cl)][Phe(4-Cl)][dW]KT[Phe(4-Cl)]T[dS]C-OH; disulfide 3-13), in assay [1] (rat, in vivo), the “Relative potency to inhibit the secretion of INSULIN” value is reported as 127. The “Relative potency to inhibit the secretion of GLUCAGON” value in assay [2] (rat, in vivo) is reported as above 1.
Regarding `C[C@H](N)C(=O)NCC(=O)N[C@H]1CSSC[C@@H](C(=O)O)NC(=O)[C@H](CO)NC(=O)[C@H]([C@@H](C)O)NC(=O)[C@H](Cc2ccccc2)NC(=O)[C@H]([C@@H](C)O)NC(=O)[C@H](CCCCN)NC(=O)[C@H](Cc2c[nH]c3ccccc23)NC(=O)[C@H](Cc2ccccc2)NC(=O)[C@H](Cc2ccc(Cl)cc2)NC(=O)[C@H](CC(N)=O)NC(=O)[C@H](CCCCN)NC1=O` [[P Cl Phe^6]--SS], the “Relative potency to inhibit the secretion of INSULIN” value in assay [1] (rat, in vivo) turned out to be 100. Also, the “Relative potency to inhibit the secretion of GLUCAGON” value in assay [2] (rat, in vivo) is 100.
